From publication PMC8001472, “Novel Selective IDO1 Inhibitors with Isoxazolo[5,4-d]pyrimidin-4(5H)-one Scaffold” (Pharmaceuticals, 2021) come the findings set out here.

One data set has as its system Hep G2 cell line. As to the kind of experiment: Cytotoxicity, MTS cell proliferation assay. It counts as cell-based. The conditions noted are these: Hep G2 cells. How it is done:
(§1) All active compounds were additionally evaluated on a cellular level, starting with the determination of cytotoxicity on Hep G2 cell line using the MTS assay (Figure 3), where inner salt of [3-(4,5-dimethylthiazol-2-yl)-5-(3-carboxymethoxyphenyl)-2-(4-sulfophenyl)-2H-tetrazolium is converted to formazan product, its quantity is directly proportional to the number of living cells. Since the majority of compounds were only partially soluble in a cell medium at concentrations above 100 μM, their effect on cell viability was measured at 50 μM, 10 μM, and 1 μM. […] Taken together, the results obtained from cellular tests reminded us of the necessity to consider the physicochemical properties of compounds even at the early stages of design.
Cytotoxicity of the compounds was determined on HepG2 cell line using the MTS cell proliferation assay (CellTiter 96 AQueous One Solution Cell Proliferation Assay, Promega, Madison, WI, USA). The cells were seeded in 96-well plates (3 × 10^4 cells/well) and maintained in Dulbecco’s Modified Eagle’s Medium, supplemented with 10% fetal bovine serum (both from Thermo Fisher Scientific, Waltham, MA, USA) and 100 µg/mL gentamicin (Sigma-Aldrich, St. Louis, MO, USA). Following overnight incubation in a humidified chamber at 37 °C and 5% CO2 cells were treated with the compounds of interest at final concentrations of 1 µM, 10 µM, 50 µM, 100 µM, 150 µM, and 200 µM. After 24h incubation under the same conditions, 100 µL of the medium from each well were collected and mixed with 10 µL of MTS solution. Following 3h incubation, the absorbance (λABS = 490 nm) was measured using a microplate reader (Synergy H4; BioTek Instruments, Inc., Winooski, VT, USA). The results are expressed as means of triplicates ± standard deviation of three independent experiments.

For another data set, the target named is T1, hIDO2 (Homo sapiens, UniProt Q6ZQW0).
T1 construct: purchased Vinci-Biochem
T1 sequence (Q6ZQW0 1-407): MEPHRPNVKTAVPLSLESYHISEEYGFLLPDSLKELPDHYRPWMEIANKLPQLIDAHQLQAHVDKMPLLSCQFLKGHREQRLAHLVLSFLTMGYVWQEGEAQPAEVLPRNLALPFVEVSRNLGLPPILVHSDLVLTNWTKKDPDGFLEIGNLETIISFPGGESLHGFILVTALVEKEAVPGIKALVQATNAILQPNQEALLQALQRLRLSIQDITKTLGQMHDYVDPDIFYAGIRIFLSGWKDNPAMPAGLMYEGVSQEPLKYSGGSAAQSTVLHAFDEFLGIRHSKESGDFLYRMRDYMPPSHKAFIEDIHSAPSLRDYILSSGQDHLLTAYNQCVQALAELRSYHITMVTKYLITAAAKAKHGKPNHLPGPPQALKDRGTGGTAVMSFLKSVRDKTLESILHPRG
The experiment in a line: hIDO2 inhibitory potency evaluation (fluorescence assay). It counts as biochemical. How it is done: Additionally, to determine IDO1 selectivity, all final compounds were assayed for their inhibitory potencies towards hIDO2 and hTDO. For this purpose, two new protocols were developed based on the published fluorescence assay for hIDO1 [25]. Sodium ascorbate, methylene blue, and bovine catalase were used in the same concentrations as for hIDO1. 50 mM phosphate buffers with pH values of 7.5 and 7.0 were used for hIDO2 and hTDO, respectively, as has been already mentioned before. First, the activities of hIDO2 and hTDO were determined at four different concentrations. […] Additionally, the effect of DMSO concentration on enzyme activity was investigated. […] The optimal hIDO2 and hTDO assay concentrations of the substrate L-Trp were determined to be 4 mM and 500 μM, respectively.
Activity of the compounds on hIDO2 was determined according to the previously reported fluorescence protocol for hIDO1 [25] and reported absorbance protocols for hIDO2 [30, 36] with several modifications. Recombinant hIDO2 was purchased from Vinci-Biochem (Vinci-Biochem, Srl, Vinci, Italy), bovine catalase was purchased from Sigma-Aldrich (Sigma-Aldrich, St. Louis, MO, USA). Prior to the measurement of activity for compounds, the enzyme activity was determined and optimal assay enzyme concentration was selected. The amounts of reagents needed to perform the assay were optimized. Briefly, the reagents needed were dissolved in 50 mM potassium phosphate buffer (pH 7.5, 0.01%, v/v Tween 20), the reaction was performed in black 384-well microplates. After the addition of 1 μL of 100 mM sodium ascorbate neutralized with an equimolar amount of 1M NaOH, 1 μL of 100 μM methylene blue, 1 μL of 1 mg/mL bovine catalase, 0.5 μL of DMSO (negative control) or solution of a compound in DMSO, 5 μL of […] hIDO2 and 1.5 μL of 26.7 mM L-Trp were added and the microplate was incubated for 60 min at 37 °C. The reaction was quenched with the addition of 10 μL of 400 mM piperidine solution in MilliQ water and the formation of the examined fluorophore began following incubation at 65 °C for 20 min. The production of NFK-derived fluorophore (λEX = 400 nm, λEM = 500 nm) was measured using a microplate reader (Synergy H4; BioTek Instruments, Inc., Winooski, VT, USA) after 60 min post-incubation at room temperature. In the preliminary testing compounds were tested at 100 μM with activities determined as residual activities—RA, which were calculated to% of inhibition, presented in Table 1 and Table 2. (% of inhibition = 100% − RA). All determinations were carried out in duplicates.

The target in another data set is IDO1 (Homo sapiens, UniProt P14902). As to the kind of experiment: Cell-based IDO1 inhibitory assay on IFN-γ treated HeLa cells. On the set-up: endogenous in cells; host or cells: HeLa cells treated with human IFN-γ. How it is done:
as §1
HeLa cells were seeded in 96-well plates (2 × 10^4 cells/well) and maintained in Dulbecco’s modified Eagle’s medium, supplemented with 10% fetal bovine serum (both from Thermo Fisher Scientific, Waltham, MA, USA) and 100 µg/mL gentamicin (Sigma-Aldrich, St. Louis, MO, USA). Following overnight incubation in a humidified chamber at 37 °C and 5% CO2 cells were treated with human IFN-γ (50 ng/mL final concentration). […] The absorbance (λABS = 480 nm) of the yellow color derivate formed after 10 min was measured using a microplate reader (Synergy H4; BioTek Instruments, Inc., Winooski, VT, USA).

IDO1, sequence (P14902 whole entry): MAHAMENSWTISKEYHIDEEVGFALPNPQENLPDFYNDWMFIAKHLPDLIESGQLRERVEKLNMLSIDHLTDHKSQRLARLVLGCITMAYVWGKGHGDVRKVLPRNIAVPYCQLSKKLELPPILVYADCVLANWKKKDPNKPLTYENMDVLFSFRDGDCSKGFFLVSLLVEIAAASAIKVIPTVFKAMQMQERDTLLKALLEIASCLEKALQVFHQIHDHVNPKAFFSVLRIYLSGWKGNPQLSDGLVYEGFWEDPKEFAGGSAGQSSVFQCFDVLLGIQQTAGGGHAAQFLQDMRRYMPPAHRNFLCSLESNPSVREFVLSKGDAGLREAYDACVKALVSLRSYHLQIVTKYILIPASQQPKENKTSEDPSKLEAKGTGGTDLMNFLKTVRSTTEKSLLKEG

Broadly, the melting point is the temperature of the solid-liquid transition. For the compound `O=C(Cn1cnc2onc(-c3ccc(F)cc3)c2c1=O)Nc1ccc(C(F)(F)F)cc1` [Compound 23], the melting point lay in the range of 225 to 227 °C. In the data set on Hep G2 cell line, the cytotoxicity profile result is listed as “satisfying cytotoxicity profile”. Further, at hIDO2, the “hIDO2 inhibition (in words)” value is given as “no activity”. The “cell-based IDO1 inhibition” value on IDO1 is “no activity was detected”.
